Broadly, the IC50 is the point on the concentration scale where inhibition reaches its midpoint.

Our source for the IC50 values is US8404692B2, “Pyrimidin-4-yl-3, 4-dihydro-2H-pyrrolo [1,2A] pyrazin-1-one compounds” (Cyclacel Limited, priority 2005, dated 2013).

Where only a bound is given, the exact number is not on record here.

The target of the assay is T1, aurora-A (human) (Homo sapiens, UniProt O14965).
T1 construct: purchased Upstate, Dundee, UK
T1 sequence (O14965 1-403): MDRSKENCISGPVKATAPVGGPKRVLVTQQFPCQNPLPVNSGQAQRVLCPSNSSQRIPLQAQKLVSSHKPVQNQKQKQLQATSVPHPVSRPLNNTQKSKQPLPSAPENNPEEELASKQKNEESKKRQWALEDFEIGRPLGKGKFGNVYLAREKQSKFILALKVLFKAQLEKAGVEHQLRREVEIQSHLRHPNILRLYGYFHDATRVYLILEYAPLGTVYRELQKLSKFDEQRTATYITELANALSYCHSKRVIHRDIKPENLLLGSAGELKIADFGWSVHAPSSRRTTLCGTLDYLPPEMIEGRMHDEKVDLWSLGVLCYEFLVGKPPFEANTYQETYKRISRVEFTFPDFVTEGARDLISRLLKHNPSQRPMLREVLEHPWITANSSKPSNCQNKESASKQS
The assay is described as follows: Aurora-A (human) kinase assay. The class given is biochemical. The settings on record: read-out: Activity (Aurora A activity, IC50 grading). How it is done: This was achieved by measurement of incorporation of radioactive phosphate from ATP into Kemptide substrate (LRRASLG), upon phosphorylation by commercially obtained aurora-A (human, Upstate; Dundee, UK). Assays were performed using 96-well plates and appropriate assay buffers (20 mM Tris, 25 mM β-glycerophosphate, 5 mM EGTA, 1 mM DTT, 1 mM sodium vanadate, pH 7.5), into which were added 2-5 ng of active enzyme with 500 μM substrate (Kemptide). The reactions were initiated by addition of MATP mix (15 mM MgCl2+100 μM ATP with 15-25 kBq per well of [γ-^32P]-ATP) and mixtures incubated for 30 min at 30° C. Reactions were stopped by addition of an equal volume of 75 mM aq orthophosphoric acid, followed by filtration through p81 filterplates (Whatman Polyfiltronics, Kent, UK). After washing 4 times with 75 mM aq orthophosphoric acid, plates were dried, scintillant added and incorporated radioactivity measured in a scintillation counter (TopCount, Packard Instruments, Pangbourne, Berks, UK). Compounds for kinase assay were made up as 10 mM stocks in DMSO and diluted into 10% DMSO in assay buffer. Data was analysed using curve-fitting software (XLfit version 4.0.2, IDBS, Guildford, Surrey, UK) to determine IC50 values (concentration of test compound which inhibits kinase activity by 50%).
In the case of `Cc1c(-c2ccnc(Nc3cccc(-c4cncnc4)c3)n2)c(C)n2c1C(=O)NCC2` [Example I-53, 6,8-Dimethyl-7-[2-(3-pyrimidin-5-yl-phenylamino)-pyrimidin-4-yl]-3,4-dihydro-2H-pyrrolo[1,2-a]pyrazin-1-one], the IC50 is less than 100 nM. As for `Cc1c(-c2ccnc(Nc3ccc(Cc4ccncc4)cc3)n2)c(C)n2c1C(=O)NCC2` [Example I-54, 6,8-Dimethyl-7-[2-(4-pyridin-4-ylmethyl-phenylamino)-pyrimidin-4-yl]-3,4-dihydro-2H-pyrrolo[1,2-a]pyrazin-1-one], the figure is less than 1000 nM. Under `Cc1c(-c2ccnc(Nc3ccc(S(=O)(=O)N4CCCC4)cc3)n2)c(C)n2c1C(=O)NCC2` [Example I-55, 6,8-Dimethyl-7-{2-[4-(pyrrolidine-1-sulfonyl)-phenylamino]-pyrimidin-4-yl}-3,4-dihydro-2H-pyrrolo[1,2-a]pyrazin-1-one] stands less than 1000 nM.

In the case of `Cc1c(-c2ccnc(Nc3ccc(S(=O)(=O)N4CCCCC4)cc3)n2)c(C)n2c1C(=O)NCC2` [Example I-56, 6,8-Dimethyl-7-{2-[4-(piperidine-1-sulfonyl)-phenylamino]-pyrimidin-4-yl}-dihydro-2H-pyrrolo[1,2-a]pyrazin-1-one], the IC50 was less than 100 nM. On to `Cc1c(-c2ccnc(Nc3ccc(OCc4ccccc4)cc3)n2)c(C)n2c1C(=O)NCC2` [Example I-57, 7-[2-(4-Benzyloxy-phenylamino)-pyrimidin-4-yl]-6,8-dimethyl-3,4-dihydro-2H-pyrrolo[1,2-a]pyrazin-1-one], for which the half-maximal inhibitory concentration (IC50) is less than 10000 nM. Regarding `Cc1c(-c2ccnc(Nc3cccc(C(=O)c4ccccc4)c3)n2)c(C)n2c1C(=O)NCC2` [Example I-58, 7-[2-(3-Benzoyl-phenylamino)-pyrimidin-4-yl]-6,8-dimethyl-3,4-dihydro-2H-pyrrolo[1,2-a]pyrazin-1-one], the IC50 is less than 1000 nM. Under `CC(=O)Nc1cccc(Nc2nccc(-c3c(C)c4n(c3C)CCNC4=O)n2)c1` [Example I-59, N-{3-[4-(6,8-Dimethyl-1-oxo-1,2,3,4-tetrahydro-pyrrolo[1,2-a]pyrazin-7-yl)-pyrimidin-2-ylamino]-phenyl}-acetamide] stands less than 100 nM; under `Cc1c(-c2ccnc(Nc3ccc(-c4csnn4)cc3)n2)c(C)n2c1C(=O)NCC2` [Example I-60, 6,8-Dimethyl-7-[2-(4-[1,2,3]thiadiazol-4-yl-phenylamino)-pyrimidin-4-yl]-3,4-dihydro-2H-pyrrolo[1,2-a]pyrazin-1-one], less than 100 nM.

Regarding `Cc1c(-c2ccnc(Nc3ccc(OC(F)(F)F)cc3)n2)c(C)n2c1C(=O)NCC2` [Example I-61, 6,8-Dimethyl-7-[2-(4-trifluoromethoxy-phenylamino)pyrimidin-4-yl]-3,4-dihydro-2H-pyrrolo[1,2-a]pyrazin-1-one], the concentration for half-maximal inhibition (IC50) was less than 1000 nM. Consider `Cc1c(-c2ccnc(Nc3ccc4c(c3)OCCCO4)n2)c(C)n2c1C(=O)NCC2` [Example I-62, 7-[2-(3,4-Dihydro-2H-benzo[b][1,4]dioxepin-7-ylamino)-pyrimidin-4-yl]-6,8-dimethyl-3,4-dihydro-2H-pyrrolo[1,2-a]pyrazin-1-one], for which the IC50 was less than 100 nM. As for `Cc1c(-c2ccnc(Nc3ccc4c(c3)CS(=O)(=O)C4)n2)c(C)n2c1C(=O)NCC2` [Example I-63, 7-[2-(2,2-Dioxo-2,3-dihydro-1H-2-benzo[c]thiophen-5-ylamino)-pyrimidin-4-yl]-6,8-dimethyl-3,4-dihydro-2H-pyrrolo[1,2-a]pyrazin-1-one], the figure is less than 100 nM; as for `Cc1c(-c2ccnc(Nc3ccc(F)c(Cl)c3)n2)c(C)n2c1C(=O)NCC2` [Example I-64, 7-[2-(3-Chloro-4-fluoro-phenylamino)-pyrimidin-4-yl]-6,8-dimethyl-3,4-dihydro-2H-pyrrolo[1,2-a]pyrazin-1-one], less than 1000 nM.

Take `Cc1c(-c2ccnc(Nc3ccccc3F)n2)c(C)n2c1C(=O)NCC2` [Example I-65, 7-[2-(2-Fluoro-phenylamino)-pyrimidin-4-yl]-6,8-dimethyl-3,4-dihydro-2H-pyrrolo[1,2-a]pyrazin-1-one]: the IC50 was less than 1000 nM.

Take `Cc1c(-c2ccnc(Nc3ccc(F)cc3F)n2)c(C)n2c1C(=O)NCC2` [Example I-66, 7-[2-(2,4-Difluoro-phenylamino)-pyrimidin-4-yl]-6,8-dimethyl-3,4-dihydro-2H-pyrrolo[1,2-a]pyrazin-1-one]: the IC50 is less than 10000 nM.

As to `COc1ccc(Nc2nccc(-c3c(C)c4n(c3C)CCNC4=O)n2)cc1Cl` [Example I-67, 7-[2-(3-Chloro-4-methoxy-phenylamino)-pyrimidin-4-yl]-6,8-dimethyl-3,4-dihydro-2H-pyrrolo[1,2-a]pyrazin-1-one], the IC50 was less than 100 nM. Take `Cc1c(-c2ccnc(Nc3ccc(C(F)(F)F)cc3)n2)c(C)n2c1C(=O)NCC2` [Example I-68, 6,8-Dimethyl-7-[2-(4-trifluoromethyl-phenylamino)-pyrimidin-4-yl]-3,4-dihydro-2H-pyrrolo[1,2-a]pyrazin-1-one]: the IC50 is less than 10000 nM. Consider `Cc1c(-c2ccnc(Nc3cccc(Cl)c3)n2)c(C)n2c1C(=O)NCC2` [Example I-69, 7-[2-(3-Chloro-phenylamino)-pyrimidin-4-yl]-6,8-dimethyl-3,4-dihydro-2H-pyrrolo[1,2-a]pyrazin-1-one], for which the IC50 is less than 1000 nM. In the case of `Cc1c(-c2ccnc(Nc3ccc(CC(=O)O)cc3)n2)c(C)n2c1C(=O)NCC2` [Example I-70, {4-[4-(6,8-dimethyl-1-oxo-1,2,3,4-tetrahydro-pyrrolo[1,2-a]pyrazin-7-yl)-pyrimidin-2-ylamino]-phenyl}-acetic acid], the IC50 is less than 100 nM.

Regarding `Cc1nc(-c2ccc(Nc3nccc(-c4c(C)c5n(c4C)CCNC5=O)n3)cc2)cs1` [Example I-71, 6,8-Dimethyl-7-{2-[4-(2-methyl-thiazol-4-yl)-phenylamino]-pyrimidin-4-yl}-3,4-dihydro-2H-pyrrolo[1,2-a]pyrazin-1-one], the IC50 was less than 1000 nM. As for `Cc1c(-c2ccnc(Nc3ccc(-n4cccn4)cc3)n2)c(C)n2c1C(=O)NCC2` [Example I-72, 6,8-Dimethyl-7-[2-(4-pyrazol-1-yl-phenylamino)-pyrimidin-4-yl]-3,4-dihydro-2H-pyrrolo[1,2-a]pyrazin-1-one], the figure is less than 1000 nM; as for `Cc1c(-c2ccnc(Nc3ccc(-n4cncn4)cc3)n2)c(C)n2c1C(=O)NCC2` [Example I-73, 6,8-Dimethyl-7-[2-(4-[1,2,4]triazol-1-yl-phenylamino)-pyrimidin-4-yl]-3,4-dihydro-2H-pyrrolo[1,2-a]pyrazin-1-one], less than 1000 nM; as for `Cc1c(-c2ccnc(Nc3ccc(-n4cccc4)cc3)n2)c(C)n2c1C(=O)NCC2` [Example I-74, 6,8-Dimethyl-7-[2-(4-pyrrol-1-yl-phenylamino)-pyrimidin-4-yl]-3,4-dihydro-2H-pyrrolo[1,2-a]pyrazin-1-one], less than 1000 nM.

Turning to `Cc1c(-c2ccnc(Nc3ccc(-c4cn5c(n4)SCC5)cc3)n2)c(C)n2c1C(=O)NCC2` [Example I-75, 7-{2-[4-(2,3-Dihydro-imidazo[2,1-b]thiazol-6-yl)-phenylamino]-pyrimidin-4-yl}-6,8-dimethyl-3,4-dihydro-2H-pyrrolo[1,2-a]pyrazin-1-one], the half-inhibitory concentration (IC50) was less than 100 nM.
